{"source": "patent US8148391B2", "about": "(Cephalon, Inc., priority 2006, dated 2012)", "key": {"[1]": {"target": "T1, baculovirus-expressed ALK (Homo sapiens, UniProt Q9UM73)", "T1 construct": "host or cells: baculovirus expression system", "T1 sequence (Q9UM73 19-1620)": "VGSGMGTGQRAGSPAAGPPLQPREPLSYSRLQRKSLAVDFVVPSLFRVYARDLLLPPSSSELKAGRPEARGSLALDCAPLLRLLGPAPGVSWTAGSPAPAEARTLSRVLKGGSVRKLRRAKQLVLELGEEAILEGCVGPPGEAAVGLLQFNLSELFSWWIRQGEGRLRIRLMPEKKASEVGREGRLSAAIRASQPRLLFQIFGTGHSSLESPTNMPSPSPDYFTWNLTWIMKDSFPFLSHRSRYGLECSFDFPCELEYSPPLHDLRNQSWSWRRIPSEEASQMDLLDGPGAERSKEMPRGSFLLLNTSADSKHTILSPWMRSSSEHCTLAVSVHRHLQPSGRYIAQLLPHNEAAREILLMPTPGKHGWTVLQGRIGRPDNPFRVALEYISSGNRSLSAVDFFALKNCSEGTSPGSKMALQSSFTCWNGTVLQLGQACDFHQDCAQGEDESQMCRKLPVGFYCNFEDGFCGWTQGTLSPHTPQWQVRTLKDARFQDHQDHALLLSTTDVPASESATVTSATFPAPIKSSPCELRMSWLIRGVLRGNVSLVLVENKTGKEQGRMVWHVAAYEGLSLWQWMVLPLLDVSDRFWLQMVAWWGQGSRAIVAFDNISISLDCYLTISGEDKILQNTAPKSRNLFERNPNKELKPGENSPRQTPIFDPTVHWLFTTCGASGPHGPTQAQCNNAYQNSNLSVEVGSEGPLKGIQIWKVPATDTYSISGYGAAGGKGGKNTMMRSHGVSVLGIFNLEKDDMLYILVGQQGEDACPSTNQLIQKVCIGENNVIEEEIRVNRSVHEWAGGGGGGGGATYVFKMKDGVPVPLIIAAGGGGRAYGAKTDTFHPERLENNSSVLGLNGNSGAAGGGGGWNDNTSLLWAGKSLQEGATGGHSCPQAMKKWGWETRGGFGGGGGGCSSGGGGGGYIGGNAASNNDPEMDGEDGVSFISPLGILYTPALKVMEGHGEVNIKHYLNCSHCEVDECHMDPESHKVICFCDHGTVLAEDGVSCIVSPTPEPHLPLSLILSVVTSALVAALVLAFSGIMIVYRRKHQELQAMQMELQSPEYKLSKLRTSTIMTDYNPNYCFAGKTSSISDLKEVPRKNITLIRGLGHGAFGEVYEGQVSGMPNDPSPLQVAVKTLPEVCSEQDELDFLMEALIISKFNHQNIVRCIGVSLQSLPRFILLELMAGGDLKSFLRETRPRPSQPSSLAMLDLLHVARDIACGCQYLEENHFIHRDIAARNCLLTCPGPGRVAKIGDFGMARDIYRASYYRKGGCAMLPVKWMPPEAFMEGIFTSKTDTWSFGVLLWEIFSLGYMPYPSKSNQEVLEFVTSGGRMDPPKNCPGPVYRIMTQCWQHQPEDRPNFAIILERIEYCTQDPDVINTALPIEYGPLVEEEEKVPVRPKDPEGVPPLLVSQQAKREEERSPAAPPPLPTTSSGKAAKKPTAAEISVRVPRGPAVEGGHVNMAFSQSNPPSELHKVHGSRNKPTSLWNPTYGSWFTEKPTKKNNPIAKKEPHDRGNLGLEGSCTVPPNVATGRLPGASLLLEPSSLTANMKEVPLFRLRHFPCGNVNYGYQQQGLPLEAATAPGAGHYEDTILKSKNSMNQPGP", "test": "ALK Kinase Assay (ELISA-type, time-resolved fluorescence)", "format": "biochemical", "summary_of_the_method": "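Plates coated with phospholipase C-γ substrate (10 μg/mL in TBS); reaction started with 30 ng/ml ALK and run 15 min at 37° C. Phosphorylated substrate detected with Eu-N1-labeled PT66 antibody. IC50 from sigmoidal variable-slope fit of percent inhibition vs log concentration.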"}, "[2]": {"target": "T2, c-Met (cytoplasmic domain) (Homo sapiens, UniProt P08581)", "T2 construct": "10 ng/mL c-Met (cytoplasmic domain, Invitrogen Corporation #PV3143); purchased Invitrogen Corporation PV3143", "T2 sequence (P08581 956-1390 limits assumed)": "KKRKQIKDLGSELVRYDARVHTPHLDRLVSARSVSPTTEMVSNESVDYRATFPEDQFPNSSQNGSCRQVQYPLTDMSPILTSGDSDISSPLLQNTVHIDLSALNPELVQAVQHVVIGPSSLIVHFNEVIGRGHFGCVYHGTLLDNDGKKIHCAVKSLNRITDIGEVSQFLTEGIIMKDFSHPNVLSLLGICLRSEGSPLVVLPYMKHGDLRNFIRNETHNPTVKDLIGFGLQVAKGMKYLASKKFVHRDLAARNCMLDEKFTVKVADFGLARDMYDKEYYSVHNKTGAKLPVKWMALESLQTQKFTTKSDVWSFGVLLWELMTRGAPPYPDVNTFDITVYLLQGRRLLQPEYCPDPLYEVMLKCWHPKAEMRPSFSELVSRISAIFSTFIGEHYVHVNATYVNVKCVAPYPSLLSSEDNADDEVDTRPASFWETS", "test": "c-Met Kinase Assay (same methods as for ALK, with modifications)", "format": "biochemical", "summary_of_the_method": "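Plates were coated with phospholipase C-γ substrate (10 μg/mL) in TBS, and the reaction was started with 10 ng/mL c-Met cytoplasmic domain and run 15 min at 37 °C. Phosphoproduct was detected with Eu-N1-labelled PT66 antibody. IC50 came from a variable-slope sigmoidal fit of percent inhibition vs log concentration.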"}, "[3]": {"conditions": "1 μM ATP (Km level), read-out: ALK Activity (ALK Kinase Inhibition, IC50)"}, "[4]": {"conditions": "1 μM ATP (Km level), read-out: cMet Activity (c-Met Kinase Inhibition, IC50)"}, "[5]": {"conditions": "ALK kinase inhibition, 1 μM ATP, read-out: ALK Activity"}, "[6]": {"conditions": "c-Met kinase inhibition, 1 μM ATP, read-out: cMet Activity"}, "[7]": {"conditions": "ALK kinase inhibition, 1 μM ATP (Km level), read-out: ALK Activity"}, "[8]": {"conditions": "c-Met kinase inhibition, 1 μM ATP (Km level), read-out: cMet Activity"}, "[9]": {"conditions": "1 μM ATP (Km level), 30 ng/ml ALK, 37° C., 15 minutes, read-out: ALK Activity (ALK kinase inhibition, IC50 class)"}, "[10]": {"conditions": "1 μM ATP (Km level), 10 ng/mL c-Met, read-out: cMet Activity (c-Met kinase inhibition, IC50 class)"}}, "note": "Like-named read-outs stand apart in the source and are kept apart here."}
{"compound": "COc1cc2c(cc1Nc1ncc(Cl)c(N[C@@H]3CCCC[C@H]3NS(C)(=O)=O)n1)CCN(CC(F)F)CC2", "note": "[Example 762, N-((1R,2R)-2-{5-Chloro-2-[3-(2,2-difluoro-ethyl)-8-methoxy-2,3,4,5-tetrahydro-1H-benzo[d]azepin-7-ylamino]-pyrimidin-4-ylamino}-cyclohexyl)-methanesulfonamide]", "values": [{"measurement": "IC50", "setting": "[1]; [3]", "value": "< 100", "unit": "nM"}, {"measurement": "IC50", "setting": "[2]; [4]", "value": "> 10000", "unit": "nM"}]}
{"compound": "CNC(=O)c1sccc1Nc1nc(Nc2ccc3c(c2)OCCCN3C(=O)CN2CCCC2)ncc1Cl", "note": "[Example 1715, 3-{5-Chloro-2-[9-(2-pyrrolidin-1-yl-acetyl)-6,7,8,9-tetrahydro-5-oxa-9-aza-benzocyclohepten-3-ylamino]-pyrimidin-4-ylamino}-thiophene-2-carboxylic acid methylamide]", "values": [{"measurement": "IC50", "setting": "[1]; [5]", "value": "100 to 1000", "unit": "nM"}, {"measurement": "IC50", "setting": "[2]; [6]", "value": "100 to 1000", "unit": "nM"}]}
{"compound": "CNC(=O)c1cccc(OC(F)(F)F)c1Nc1nc(Nc2ccc3c(c2)CCOC(=O)N3C)ncc1Cl", "note": "[Example 1773, 2-[5-Chloro-2-(5-methyl-6-oxo-5,6,8,9-tetrahydro-7-oxa-5-aza-benzocyclohepten-2-ylamino)-pyrimidin-4-ylamino]-N-methyl-3-trifluoromethoxy-benzamide]", "values": [{"measurement": "IC50", "setting": "[1]; [5]", "value": "> 10000", "unit": "nM"}, {"measurement": "IC50", "setting": "[2]; [6]", "value": "100 to 1000", "unit": "nM"}]}
{"compound": "COc1cc2c(cc1Nc1ncc(Cl)c(N[C@H]3[C@@H](C(N)=O)[C@@H]4C=C[C@H]3C4)n1)CCN(CC(=O)N1CCOCC1)CC2", "note": "[Example 1527, (1S,2S,3R,4R)-3-{5-Chloro-2-[8-methoxy-3-(2-morpholin-4-yl-2-oxo-ethyl)-2,3,4,5-tetrahydro-1H-3-benzazepin-7-ylamino]-pyrimidin-4-ylamino}-bicyclo[2.2.1]hept-5-ene-2-carboxylic acid amide]", "values": [{"measurement": "IC50", "setting": "[1]; [5]", "value": "< 100", "unit": "nM"}, {"measurement": "IC50", "setting": "[2]; [6]", "value": "> 10000", "unit": "nM"}]}
{"compound": "CO[C@@H](CN1CCc2ccc(Nc3ncc(Cl)c(N[C@@H]4CCCC[C@H]4NS(C)(=O)=O)n3)cc2CC1)C(F)(F)F", "note": "[Example 336, N-((1R,2R)-2-{5-Chloro-2-[3-((S)-3,3,3-trifluoro-2-methoxy-propyl)-2,3,4,5-tetrahydro-1H-benzo[d]azepin-7-ylamino]-pyrimidin-4-ylamino}-cyclohexyl)-methanesulfonamide]", "values": [{"measurement": "IC50", "setting": "[1]; [7]", "value": "< 100", "unit": "nM"}, {"measurement": "IC50", "setting": "[2]; [8]", "value": "100 to 1000", "unit": "nM"}]}
{"compound": "CNC(=O)c1cccc(F)c1Nc1nc(Nc2ccc3c(c2)-n2ccnc2CCC3(C)C)ncc1Cl", "note": "[Example 1270, 2-[5-Chloro-2-(6,6-dimethyl-5,6-dihydro-4H-3,10b-diaza-benz[e]azulen-9-ylamino)-pyrimidin-4-ylamino]-3-fluoro-N-methyl-benzamide]", "values": [{"measurement": "IC50", "setting": "[1]; [9]", "value": "100 to 1000", "unit": "nM"}, {"measurement": "IC50", "setting": "[2]; [10]", "value": "< 100", "unit": "nM"}]}
{"compound": "CCNC(=O)c1ccccc1Nc1nc(Nc2cc3c(cc2OC)CCN(CC(F)F)CC3)ncc1Cl", "note": "[Example 767, 2-{5-Chloro-2-[3-(2,2-difluoro-ethyl)-8-methoxy-2,3,4,5-tetrahydro-1H-benzo[d]azepin-7-ylamino]-pyrimidin-4-ylamino}-N-ethyl-benzamide]", "values": [{"measurement": "IC50", "setting": "[1]; [3]", "value": "< 100", "unit": "nM"}, {"measurement": "IC50", "setting": "[2]; [4]", "value": "> 10000", "unit": "nM"}]}
{"compound": "COc1cc2c(cc1Nc1ncc(Cl)c(Nc3ccc(N(C)C)cc3OC)n1)CCN(CCS(C)(=O)=O)CC2", "note": "[Example 1167, 5-Chloro-N*4*-(4-dimethylamino-2-methoxy-phenyl)-N*2*-[3-(2-methanesulfonyl-ethyl)-8-methoxy-2,3,4,5-tetrahydro-1H-benzo[d]azepin-7-yl]-pyrimidine-2,4-diamine]", "values": [{"measurement": "IC50", "setting": "[1]; [9]", "value": "< 100", "unit": "nM"}, {"measurement": "IC50", "setting": "[2]; [10]", "value": "> 10000", "unit": "nM"}]}
{"compound": "5-Chloro-N*2*-[1-methoxy-7-(2,2,2-trifluoro-ethylamino)-6,7,8,9-tetrahydro-5H-benzocyclohepten-2-yl]-N*4*-methyl-N*4*-[2-(propane-2-sulfonyl)-phenyl]-pyrimidine-2,4-diamine [Example 680]", "values": [{"measurement": "IC50", "setting": "[1]; [3]", "value": "< 100", "unit": "nM"}, {"measurement": "IC50", "setting": "[2]; [4]", "value": "> 10000", "unit": "nM"}]}
{"compound": "COCCN1CCc2ccc(OC)c(Nc3ncc(Cl)c(N[C@@H]4CCCC[C@H]4NS(C)(=O)=O)n3)c2CC1", "note": "[Example 244, N-((1R,2R)-2-{5-Chloro-2-[7-methoxy-3-(2-methoxy-ethyl)-2,3,4,5-tetrahydro-1H-benzo[d]azepin-6-ylamino]-pyrimidin-4-ylamino}-cyclohexyl)-methanesulfonamide]", "values": [{"measurement": "IC50", "setting": "[1]; [7]", "value": "1000 to 10000", "unit": "nM"}, {"measurement": "IC50", "setting": "[2]; [8]", "value": "> 10000", "unit": "nM"}]}
{"compound": "COc1cc2c(cc1Nc1ncc(Cl)c(N[C@@H]3CCCC[C@H]3NS(C)(=O)=O)n1)NC(=O)CN(C(C)=O)C2", "note": "[Example 1657, N-{(1R,2R)-2-[2-(4-Acetyl-7-methoxy-2-oxo-2,3,4,5-tetrahydro-1H-benzo[e][1,4]di-azepin-8-ylamino)-5-chloro-pyrimidin-4-ylamino]-cyclohexyl}-methanesulfonamide]", "values": [{"measurement": "IC50", "setting": "[1]; [5]", "value": "< 100", "unit": "nM"}, {"measurement": "IC50", "setting": "[2]; [6]", "value": "> 10000", "unit": "nM"}]}
{"compound": "COc1cc2c(cc1Nc1ncc(Cl)c(Nc3ccccc3S(=O)(=O)C(C)C)n1)CCN(CC(F)F)CC2", "note": "[Example 827, 5-Chloro-N*2*-[3-(2,2-difluoro-ethyl)-8-methoxy-2,3,4,5-tetrahydro-1H-benzo[d]azepin-7-yl]-N*4*-[2-(propane-2-sulfonyl)-phenyl]-pyrimidine-2,4-diamine]", "values": [{"measurement": "IC50", "setting": "[1]; [3]", "value": "< 100", "unit": "nM"}, {"measurement": "IC50", "setting": "[2]; [4]", "value": "> 10000", "unit": "nM"}]}
{"compound": "Cc1cnc(-c2cccc(F)c2Nc2nc(Nc3ccc4c(c3)CCOC(=O)N4C)ncc2Cl)o1", "note": "[Example 1789, 2-{5-Chloro-4-[2-fluoro-6-(5-methyl-oxazol-2-yl)-phenylamino]-pyrimidin-2-ylamino}-5-methyl-8,9-dihydro-5H-7-oxa-5-aza-benzocyclohepten-6-one]", "values": [{"measurement": "IC50", "setting": "[1]; [5]", "value": "100 to 1000", "unit": "nM"}, {"measurement": "IC50", "setting": "[2]; [6]", "value": "100 to 1000", "unit": "nM"}]}
{"compound": "CCN1C(=O)CCCc2ccc(Nc3ncc(Cl)c(Nc4ccccc4OCC#N)n3)cc21", "note": "[Example 1230, {2-[5-Chloro-2-(1-ethyl-2-oxo-2,3,4,5-tetrahydro-1H-1-benzazepin-8-ylamino)-pyrimidin-4-ylamino]-phenoxy}-acetonitrile]", "values": [{"measurement": "IC50", "setting": "[1]; [9]", "value": "< 100", "unit": "nM"}, {"measurement": "IC50", "setting": "[2]; [10]", "value": "< 100", "unit": "nM"}]}
{"compound": "CCN1CCCOc2ccc(Nc3ncc(Cl)c(Nc4ccsc4C(=O)NC)n3)cc21", "note": "[Example 1698, 3-[5-Chloro-2-(9-ethyl-6,7,8,9-tetrahydro-5-oxa-9-aza-benzocyclohepten-2-ylamino)-pyrimidin-4-ylamino]-thiophene-2-carboxylic acid methyl amide]", "values": [{"measurement": "IC50", "setting": "[1]; [5]", "value": "100 to 1000", "unit": "nM"}, {"measurement": "IC50", "setting": "[2]; [6]", "value": "100 to 1000", "unit": "nM"}]}
{"compound": "C#CCNC(=O)c1cccc(F)c1Nc1nc(Nc2ccc3c(c2)NC(=O)C(NC(C)=O)CC3(C)C)ncc1Cl", "note": "(stereo not drawn) [Example 1290, 2-[2-(3-Acetylamino-5,5-dimethyl-2-oxo-2,3,4,5-tetrahydro-1H-1-benzazepin-8-ylamino)-5-chloro-pyrimidin-4-ylamino]-3-fluoro-N-prop-2-ynyl-benzamide]", "values": [{"measurement": "IC50", "setting": "[1]; [9]", "value": "1000 to 10000", "unit": "nM"}, {"measurement": "IC50", "setting": "[2]; [10]", "value": "< 100", "unit": "nM"}]}
{"compound": "COCCNC1CCc2cc(Nc3ncc(Cl)c(Nc4ccccc4S(=O)(=O)C(C)C)n3)c(OC)cc2CC1", "note": "(stereo not drawn) [Example 1084, 5-Chloro-N*2*-[3-methoxy-7-(2-methoxy-ethylamino)-6,7,8,9-tetrahydro-5H-benzocyclohepten-2-yl]-N*4*-[2-(propane-2-sulfonyl)-phenyl]-pyrimidine-2,4-diamine]", "values": [{"measurement": "IC50", "setting": "[1]; [9]", "value": "< 100", "unit": "nM"}, {"measurement": "IC50", "setting": "[2]; [10]", "value": "1000 to 10000", "unit": "nM"}]}
{"compound": "COCCN1CCc2cc(Nc3ncc(Cl)c(Nc4ccc(N5CCN(C)CC5)cc4OC)n3)c(OC)cc2CC1", "note": "[Example 790, 5-Chloro-N*2*-[8-methoxy-3-(2-methoxy-ethyl)-2,3,4,5-tetrahydro-1H-benzo[d]azepin-7-yl]-N*4*-[2-methoxy-4-(4-methyl-piperazin-1-yl)-phenyl]-pyrimidine-2,4-diamine]", "values": [{"measurement": "IC50", "setting": "[1]; [3]", "value": "< 100", "unit": "nM"}, {"measurement": "IC50", "setting": "[2]; [4]", "value": "> 10000", "unit": "nM"}]}
